Reference: article PMC4396556, “1,2,3,4,6-Penta-O-galloylglucose within Galla Chinensis Inhibits Human LDH-A and Attenuates Cell Proliferation in MDA-MB-231 Breast Cancer Cells” (Evidence-based Complementary and Alternative Medicine : eCAM, 2015)

Assays:
[1] = target: T1, human LDH-A (hLDH-A) (Homo sapiens, UniProt P00338); assay: recombinant enzyme assay, NADH oxidation at […] nm; format: biochemical
T1 construct: gene LDHA; recombinant full length human LDHA (amino acids 1–332) with N terminal His tag

[2] = target: T1, human LDH-A (hLDH-A); assay: recombinant enzyme assay, NADH oxidation at […] nm; velocity at varied NADH ±[…] PGG; format: biochemical

Molecule O=C(O)C(=O)O [oxalic acid] has an IC50 [1] of over 6000 µM.
For O=C(OC[C@H]1O[C@@H](OC(=O)c2cc(O)c(O)c(O)c2)[C@H](OC(=O)c2cc(O)c(O)c(O)c2)[C@@H](OC(=O)c2cc(O)c(O)c(O)c2)[C@@H]1OC(=O)c1cc(O)c(O)c(O)c1)c1cc(O)c(O)c(O)c1 [PGG, penta-1,2,3,4,6-O-galloyl-β-D-glucose], the IC50 [2] was 0.0272 µM.
